Measurements: US12630589B2, “Compounds for use in viral infections” (priority 2020, dated 2026)
Read-outs that look alike come from different tables or passages of the source.

Tests used:
VeroE6 cells = assay: Cell biomass (DAPI) in VeroE6 cells; format: cell-based, African green monkey; conditions: 48 hours
Experimental: (§1) Relative infection efficiency was assessed by automated fluorescence microscopy in the green channel and overall cell biomass/well was estimated by nuclear staining with DAPI in the blue channel, as a preliminary assessment of the compound effective doses as well as overall compound cytotoxicity.
(§2) Infection experiments: Cells were seeded onto 96-well plates (2×10^4 cells/well). The day after, serial 5-fold dilutions of plitidepsin were prepared in 2% FCS-containing complete media to achieve the indicated final concentrations. WNV-GFP stock was diluted in complete media containing 2% FCS to achieve the required multiplicity of infection (MOI 0.01). Compound and virus dilutions were mixed 1:1 and added onto the target cells. Cells were incubated for 48 hours at 37° C.; 5% CO2 and 95% humidity.
(§3) Cells were fixed by addition of a 5× formaldehyde solution to achieve a 4% final concentration for 30 mins at room temperature. Cells were washed with PBS and stained with DAPI (4′,6-diamidino-2-phenylindole) following manufacturer's recommendations. Relative infection efficiency was estimated by image analysis in an automated microscopy device (Tecan Spark Cyto). Uninfected cells and vehicle-treated controls were included in each plate.

[1] = test system: IL-1, IL-6, IL-8 and TNFα secretion; assay: ELISA assays for secreted cytokines in THP-1 cells; format: cell-based, human; conditions: 100 nM plitidepsin, 6 hours, TLR ligands
Experimental: To investigate whether plitidepsin inhibits the TLR-trigged cytokine secretion, we treated THP-1 cells with 100 ng/mL TNFα (an activator of NF-κB), 500 μg/mL poly I:C (TLR3 ligand), 10 g/mL LPS-B5 (TLR4 ligand) or 10 g/mL Resiquimod (TLR-7/8 ligand). The compounds were used either alone (grey bars) or combined with 100 nM of plitidepsin (red bars) for 6 hours. We compared the variations in cytokine secretion in the cell culture supernatants between the different treatments by ELISA assays.
THP1-NFκB-LUC cell cultures were treated as described above, and the culture medium was sampled at 6 hours post-treatment to assay for secreted cytokines by ELISA. Media samples were stored at 4° C. IL-8, IL-1β, IL-6 and TNF□ protein secretion into culture medium was quantitated using highly specific and sensitive ELISA kits. Human IL-1b, human IL-6, human IL-8 and human TNF OptEIA™ ELISA kits were obtained from BD Biosciences and performed as described by the manufacturer. The data presented are the average of three independent experiments performed in triplicate.

[2] = test system: IL6, IL8, IL1β and TNF-α secretion; assay: Plitidepsin pre-treatment of THP-1 cells before Resiquimod stimulus, cytokine secretion; format: cell-based, human; conditions: 1, 10 or 50 nM added 8 hours before Resiquimod 2.5 or 5 μg/mL; read at 24 hours
Experimental: (§4) In a further in vitro experiment, the effect of plitidepsin (APL) pre-treatment on THP-1 cells was studied. Using a THP-1 NFκB luc line, 1, 10 or 50 nM of APL or DMSO (0.2%) was added 8 hours before stimulus with Resiquimod (RQ) at 2.5 or 5 μg/mL. RQ is a TLR7/8 agonist and mimics ssRNA. At 24 hours the level of cytokines or cell viability was measured.

[3] = test system: WNV-GFP (lineage 2; molecular clone WN956); assay: WNV-GFP infection efficiency in Huh7 cells; format: cell-based, West Nile virus
TNFα = assay: Resiquimod-triggered TNFα secretion in BALF of mice; format: in vivo; conditions: mice 1 mg/kg i.v. 1 hour before 50 μg/mouse intranasal RQ; 1 or 3 hours
WNV-NY99 (lineage 1) [4] = assay: Intracellular WNV RNA load by RT-qPCR, Vero-E6 cells; format: cell-based, West Nile virus; conditions: 48 hours
THP-1 cells = assay: Cell viability after plitidepsin pre-treatment and Resiquimod stimulus; format: cell-based, human; conditions: 1, 10 or 50 nM, Resiquimod 2.5 or 5 μg/mL, 24 hours
Experimental: as §4

NF-κB = NF-κB transactivation luciferase assay in THP-1 cells; format: cell-based, human; conditions: THP-1 NF-κB-Luc cells, 100 nM plitidepsin, 6 hours, with poly I:C, LPS-B5 or Resiquimod
Experimental: To that end, we took advantage of THP-1 cells stably transfected with an NFκB luciferase reporter plasmid. We treated the cells with 100 ng/mL TNFα (an activator of NF-κB), 500 μg/mL poly I:C (TLR3 ligand), 10 μg/mL LPS-B5 (TLR4 ligand) or 10 g/mL Resiquimod (TLR-7/8 ligand). The compounds were used either alone (FIG. 1A grey bars) or combined with 100 nM of plitidepsin (FIG. 1A black bars) for 6 hours, and quantified the luciferase activity under each condition.
NF-κB transactivation was assayed using the Bright-Glo™ Luciferase Assay System following the manufacturer's instructions. The NF-κB reporter (Luc)-THP-1 human monocytic, cells stably transfected with NF-κB-Luc plasmid (containing four NF-κB binding sites, a minimal promoter and a luciferase gene), were exposed to 100 ng/mL TNFα (positive control), 500 μg/mL poly (I:C) (Polyinosinic-polycytidylic), 10 μg/mL LPS-B5 (Lipopolysaccharide from Escherichia coli 055:B5) or 10 g/mL Resiquimod. The compounds were used either alone or combined with 100 nM plitidepsin for 6 hours. Luminescence was measured in a Perkin-Elmer EnVision reader. A MTT (3-(4,5-dimethylthiazol-2-yl)-2,5-diphenyltetrazolium bromide) cell proliferation assay was simultaneously performed to control the cytotoxicity of the compounds. Cell survival was expressed as percentage of control cell growth. […]

Huh7 cells = assay: Cell biomass (DAPI) in Huh7 cells; format: cell-based, human; conditions: 48 hours
Experimental: as §1, §2, §3

[5] = test system: THP-1 human monocytic cells; assay: MTT cell proliferation assay (compound-induced cytotoxicity); conditions: activators combined with 100 nM plitidepsin, 6 hours
Experimental: To that end, we took advantage of THP-1 cells stably transfected with an NFκB luciferase reporter plasmid. We treated the cells with 100 ng/mL TNFα (an activator of NF-κB), 500 μg/mL poly I:C (TLR3 ligand), 10 μg/mL LPS-B5 (TLR4 ligand) or 10 g/mL Resiquimod (TLR-7/8 ligand). The compounds were used either alone (FIG. 1A grey bars) or combined with 100 nM of plitidepsin (FIG. 1A black bars) for 6 hours, and quantified the luciferase activity under each condition. […] Survival was analysed with the MTT assay (FIG. 1B grey bars (activators) and red bars (activators combined with 100 nM of plitidepsin)).
NF-κB transactivation was assayed using the Bright-Glo™ Luciferase Assay System following the manufacturer's instructions. […] Luminescence was measured in a Perkin-Elmer EnVision reader. […] Cell survival was expressed as percentage of control cell growth. […]
Cells were seeded in 96 well microtiter plates and allowed to stand for 24 hours at 37° C. and 5% CO2 before treatment described above. After 6 hours of continuous treatment, cellular viability was estimated from conversion of MTT to its coloured reaction product, MTT formazan, which was dissolved to measure its absorbance at 540 nm. […]

WNV-NY99 (lineage 1) [6] = assay: Intracellular WNV RNA load by RT-qPCR, Huh-7 cells; format: cell-based, West Nile virus; conditions: 48 hours
[7] = test system: WNV-GFP (lineage 2; molecular clone WN956)
WNV-NY99 (lineage 1) [8] = assay: WNV/NY99 extracellular infectivity titers, Vero-E6 cells; format: cell-based, West Nile virus; conditions: VeroE6 cells, 45 nM, MOI 0.01, 48 hours
[9] = Plasma pharmacokinetics in mouse (Table 1); format: in vivo; conditions: Mouse (F) C57BL6/J, 1.0 mg/kg single intravenous bolus
alveolar macrophages = assay: Alveolar macrophage recruitment in mice (LPS inflammation model, flow cytometry); conditions: for macrophages in bronchoalveolar lavage: single iv administration
Source text: Also we checked the effect of plitidepsin on alveolar macrophage recruitment. Viral infection also leads to the activation of macrophages. Activated macrophages are twice the size of resting macrophages and are more “aggressive”, having increased levels of lysosomal proteins and a greater ability to phagocytose. Classically activated macrophages also release proteases, neutrophil chemotactic factors, reactive oxygen species and pro-inflammatory cytokines (such as IL-1 beta/IL-1F2, IL-6, and TNF-alpha/TNFSF1A), leading to inflammation and tissue destruction. Bronchoalveolar lavage cells were stained and analyced by flow cytometry.
To investigate whether plitidepsin decreases the percentage of alveolar macrophage in animals with acute inflammation, we treated mice with plitidepsin (1 mg/kg) i.v., with LPS (20 μg/kg) i.p. in sterile saline or with plitidepsin (1 mg/kg; i.v.) in combination with LPS (20 μg/kg, i.p.). Three hours later, bronchoalveolar lavages were collected. Bronchoalveolar lavage cells were obtained by centrifugation and analyzed by flow cytometry (FIG. 4b). Upper panels show the strategy of analysis of macrophage population present in the samples. Lower right panel show the same result expressed as percentage of cells. Lower left panel show the percentage of CD45+(leucocyte marker) alive cells.
Bronchoalveolar lavage cells were obtained by centrifugation and analyzed by flow cytometry.
Bronchoalveolar lavage cells were stained with anti-F4/80-BV510, CD45-APC700, CD11b-BV650, CD11c-APC-Fire, CD24-PC7 and Ly6C-BV605 monoclonal antibodies (Biolegend) and a LIVE/DEAD™ Fixable Green Dead Cell Stain Kit, for 488 nm excitation (Thermofisher). Macrophages (F4/80+) were gated on alive immune cells (CD45+ LIVE/DEAD dye−), while alveolar macrophages (F4/80+CD24−) were specifically gated on CD11c+CD11b− population from alive immune cells. Isotype controls and compensation beads were used to set compensations and gating strategies.

[10] = test system: IL-6, IL-10 and TNFα secretion; assay: Ex vivo LPS-B5-triggered cytokine secretion in bronchoalveolar lavage cells of treated mice; parameters: species or system mouse
Experimental: We checked whether plitidepsin inhibits the LPS-trigged cytokine secretion in alveolar macrophages. To that end mice were injected i.v. with plitidepsin (1 mg/kg) or vehicle and 12 hours after administration bronchoalveolar lavage fluid (BAL) was collected. Cells were plated and treated ex-vivo or not with 15 μg/mL of LPS-B5 for 3 or 6 hours and secreted cytokines were measured.
Mice were randomized into groups of five animals to receive the treatments. Mice were injected intra venous (i.v.) with plitidepsin (1 mg/kg) and 12 hours after administration were euthanised. Control group received plitidepsin vehicle diluted with saline (Cremophor/Ethanol/Water). Bronchoalveolar lavage fluid (BAL) of each group was collected and centrifugated to obtain bronchoalveolar lavage cells. Cells underwent red blood cell lysis (Roche) and were plated and treated ex-vivo or not with 15 μg/mL of LPS-B5 for 3 or 6 hours. Secreted cytokines were measured using highly specific and sensitive ELISA kits. Mouse IL-6, mouse IL-10 and mouse TNF DuoSet ELISA kits were obtained from R&D Systems and performed as described by the manufacturer.

WNV-NY99 (lineage 1) [11] = assay: WNV/NY99 extracellular infectivity titers, Huh-7 cells; format: cell-based, West Nile virus; conditions: 45 nM, MOI 0.01, 48 hours

## (−)-(3S,6R,7S,10R,11S,15S,17S,20S,25aS)-11-hydroxy-3-(4-methoxybenzyl)-2,6,17-trimethyl-15-(1-methylethyl)-7-[[(2R)-4-methyl-2-[methyl[[(2S)-1-(2-oxopropanoyl)pyrrolidin-2-yl]carbonyl]amino]pentanoyl]amino]-10-[(1S)-1-methylpropyl]-20-(2-methylpropyl)tetradecahydro-15H-pyrrolo[2,1-f]-[1,15,4,7,10,20]dioxatetrazacyclotricosine-1,4,8,13,16,18,21(17H)-heptone [PLD]
VeroE6 cells
  concentration at which cell number significantly decreased (p<0.05): 180 nM
  concentration up to which cell number remained unchanged: up to 36 nM
VeroE6 cells; read-out: CC50 based on the cell biomass
  CC50: 2330 nM
[1]
  production of IL-1, IL-6, IL-8 and TNFα (ELISA): clearly inhibited the production of IL-1, IL-6, IL-8 and TNFα
[2]
  secretion of IL6, IL8, IL1β and TNF-α induced by RQ: inhibited secretion of the pro-inflammatory cytokines: IL6, IL8, IL1β and TNF-α
[3]; Huh7 cells, MOI 0.01, 48 hours
  EC50: 0.665 nM
  EC90: 3.86 nM
[3]; Huh-7 cells
  concentration with antiviral activity in the absence of measurable interference with cell viability (p<0.05): 1.5 nM
TNFα
  production of TNFα induced by Resiquimod in BALF: prevented the increased production of TNFα
WNV-NY99 (lineage 1) [4]; 5 and 1.5 nM
  intracellular viral RNA load: not distinguishable from those in the control
WNV-NY99 (lineage 1) [4]; 15 and 45 nM
  intracellular viral RNA load: significantly decreased in a dose-dependent manner
THP-1 cells
  cell viability over the untreated control: does not decrease viability over the untreated control
NF-κB
  NF-κB transactivation (production of luciferase): clearly inhibited the production of luciferase
Huh7 cells
  CC50: 14.7 nM
  concentration at which loss of cell biomass is statistically significant (p<0.05): 7.2 nM
[5]
  cytotoxic effect (survival, MTT assay): No cytotoxic effect was detected
WNV-NY99 (lineage 1) [6]; 15 nM
  intracellular viral RNA load: marked reduction in viral load
WNV-NY99 (lineage 1) [6]; 45 nM
  RNA recovery from cells: no RNA could be recovered
[7]; Vero-E6 cells
  concentration with antiviral activity in the absence of measurable interference with cell viability (p<0.05): 7.2 nM
[7]; VeroE6 cells
  therapeutic index (ratio CC50/EC50): 475
[7]; VeroE6 cells, 48 hours
  concentration at which infection efficiency reaches background fluorescence levels: ≥ 36 nM
[7]; read-out: EC50, WNV-GFP infection efficiency, VeroE6 cells, MOI 0.01, 48 hours
  EC50: 4.9 nM
[7]; read-out: EC90, WNV-GFP infection efficiency, VeroE6 cells, MOI 0.01, 48 hours
  EC90: 9.5 nM
WNV-NY99 (lineage 1) [8]
  reduction of extracellular infectivity titers: > 3 orders of magnitude
[9]
  Cl: 4.4 L/h/kg
Alveolar macrophages; 1 mg/kg i.v.
  cytotoxic effects on bronchoalveolar lavage cells: without cytotoxic effects
Alveolar macrophages; plitidepsin 1 mg/kg i.v. with LPS 20 μg/kg i.p., 3 hours
  percentage of macrophages present on bronchoalveolar lavage: decrease the percentage of macrophages
Alveolar macrophages
  macrophages in bronchoalveolar lavage: reduces the number of macrophages in BAL
Alveolar macrophages; listed as Plitidepsin
  macrophages in bronchoalveolar lavage: decreased the percentage of macrophages
[10]; mice 1 mg/kg i.v., BAL at 12 hours, cells treated ex vivo with 15 μg/mL LPS-B5 for 3 or 6 hours
  production of IL-6 and TNF-α induced by LPS: clearly inhibited the production of pro-inflammatory cytokines IL-6, and TNF-α
[10]; treated animals, 3 and 6 hours
  secretion of IL-6, IL-10 and TNFα induced by LPS-B5 in CD45+ cells from broncho-alveolar lavages: significantly reduce the secretion of IL-6, IL-10 and TNFα
WNV-NY99 (lineage 1) [11]
  reduction of extracellular infectivity titers: > 3 orders of magnitude
